Results reported in ChEMBL document CHEMBL1123970, “Ab initio molecular electrostatic potentials of perillartine analogues: implications for sweet-taste receptor recognition” (J Med Chem, 1988).

Assay: Compound was tasted for its sweet potency, expressed with relative to sucrose

Sweetness potency | Structure (SMILES)
500 | CC1=CCC(/C=N/O)=CC1
200 | O/N=C/C1=CCC=CC1
90 | O/N=C/C1=CC=CCC1

Further lines, the molecule ahead of its results:

Structure (SMILES) | Sweetness potency
C/C=C(C)/C=N/O | 40
COCC1=CCC(/C=N/O)=CC1 | 225
O/N=C/C1=CCCC1 | 55
O/N=C/C1=CCCCC1 | 55
C/C=C(C)/C(C)=N/O | 140
